{"source": "patent US10172814B2", "about": "“Substituted pyridyl-cycloalkyl-carboxylic acids, compositions containing them and medical uses thereof” (BAYER PHARMA AKTIENGESELLSCHAFT, priority 2014, dated 2019)", "target": "human PTGES (Homo sapiens (Human), UniProt O14684)", "sequence (O14684 whole entry)": "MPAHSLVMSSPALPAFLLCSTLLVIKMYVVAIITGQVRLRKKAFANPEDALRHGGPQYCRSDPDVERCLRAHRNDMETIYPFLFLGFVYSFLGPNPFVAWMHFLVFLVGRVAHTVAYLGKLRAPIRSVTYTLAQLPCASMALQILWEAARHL", "assay": "Human PTGES biochemical enzyme inhibition assay (conversion of PGH2 to PGE2, TR-FRET)", "details": "Enzymatic conversion of PGH2 to PGE2; read-out: Human PTGES IC50", "description": "Human PTGES Biochemical Enzyme Inhibition Assay:\nPTGES (Microsomal prostaglandin E synthase 1) is an enzyme that converts prostaglandin H2 (PGH2) to prostaglandin E2 (PGE2) in the presence of reduced glutathione (GSH).\nRecombinant proteins (human isoforms) of PTGES containing a FLAG tag, expressed in baculovirus infected insect cells (Hi-5) and purified by affinity chromatography was used as enzyme in the assay. Substrate was prostaglandin H2 (Cayman Chemicals).\n4 ul of a solution of human PTGES in assay buffer [100 mM sodium phosphate pH 7.2, 2.5 mM Glutathion reduced, 1 mM EDTA, 0.01% BSA, 0.4 mM DTT, 0.15 mM n-dodecylmaltoside] was added to the well containing test compound and incubated for 15-20 minutes to allow binding of the compound to the enzyme prior to the enzymatic reaction. The reaction was started by addition of 1 ul of an ice cold solution containing PGH2 (40 nM in assay buffer resulting in a final concentration of 8 nM PGH2 in the assay). […] The concentration of each isoform of PTGES was adapted to the activity of the respective enzyme preparation to maintain linear reaction properties within the reaction time. […] The reaction was stopped by addition of 1 ul of a solution containing 15 mM SnCl2 and 400 mM KF in water. SnCl2 converts the remaining unstable PGH2 to stable PGF2alpha. Then, 3 ul of the a first detection solution containing PGE2-D2 (Cisbio Bioassays, TR-FRET reagent, diluted according to the manufacturer's recommendation, typically 1:20 in reconstitution buffer) was added. […] The resulting mix was incubated overnight at 4° C. to allow the formation of a complex of PGE2 and the detection reagents. […] Dilution series were made prior to the assay in a 100 fold concentrated form by serial dilution. IC50 values were calculated by 4-Parameter fitting."}
{"compound": "Cc1c(NC(=O)C(c2ccc(-c3cncc(C(F)(F)F)c3)cc2)C2CCCC2)cccc1C(CC(=O)O)C1CC1", "note": "(mixture of isomers) [Example 109, (3R/S)-3-(3-{[(2R/S)-2-cyclopentyl-2-{4-[5-(trifluoromethyl)pyridin-3-yl]phenyl}acetyl]amino}-2-methylphenyl)-3-cyclopropylpropanoic acid]", "values": [{"measurement": "IC50", "value": 0.0249, "unit": "µM"}]}
{"compound": "Cc1c(NC(=O)C(c2ccc(-c3cncc(Cl)c3)cc2)C2CCCC2)cccc1C(CC(=O)O)C1CC1", "note": "(mixture of isomers) [Example 110, (3R/S)-3-[3-({(2R/S)-2-[4-(5-chloropyridin-3-yl)phenyl]-2-cyclopentylacetyl}amino)-2-methylphenyl]-3-cyclopropylpropanoic acid]", "values": [{"measurement": "IC50", "value": 0.0544, "unit": "µM"}]}
{"compound": "CCOc1cncc(-c2ccc(C(C(=O)Nc3cccc(C(CC(=O)O)C4CC4)c3C)C3CCCC3)cc2)c1", "note": "(mixture of isomers) [Example 111, (3R/S)-3-[3-({(2R/S)-2-cyclopentyl-2-[4-(5-ethoxypyridin-3-yl)phenyl]acetyl}amino)-2-methylphenyl]-3-cyclopropylpropanoic acid]", "values": [{"measurement": "IC50", "value": 0.0539, "unit": "µM"}]}
{"compound": "Cc1c(NC(=O)C(c2ccc(-c3cncc(F)c3)cc2)C2CCCC2)cccc1C(CC(=O)O)C1CC1", "note": "(mixture of isomers) [Example 112, (3R/S)-3-[3-({(2R/S)-2-cyclopentyl-2-[4-(5-fluoropyridin-3-yl)phenyl]acetyl}amino)-2-methylphenyl]-3-cyclopropylpropanoic acid]", "values": [{"measurement": "IC50", "value": 0.0519, "unit": "µM"}]}
{"compound": "Cc1cncc(-c2ccc(C(C(=O)Nc3cccc(C(CC(=O)O)C4CC4)c3C)C3CCCC3)cc2)c1", "note": "(mixture of isomers) [Example 113, (3R/S)-3-[3-({(2R/S)-2-cyclopentyl-2-[4-(5-methylpyridin-3-yl)phenyl]acetyl}amino)-2-methylphenyl]-3-cyclopropylpropanoic acid]", "values": [{"measurement": "IC50", "value": 0.14, "unit": "µM"}]}
{"compound": "CCc1cncc(-c2ccc(C(C(=O)Nc3cccc(C(CC(=O)O)C4CC4)c3C)C3CCCC3)cc2)c1", "note": "(mixture of isomers) [Example 114, (3R/S)-3-[3-({(2R/S)-2-cyclopentyl-2-[4-(5-ethylpyridin-3-yl)phenyl]acetyl}amino)-2-methylphenyl]-3-cyclopropylpropanoic acid]", "values": [{"measurement": "IC50", "value": 0.0295, "unit": "µM"}]}
{"compound": "Cc1c(NC(=O)C(c2ccc(-c3cncc(C(F)(F)F)c3)c(F)c2)C2CCCC2)cccc1C(C)CC(=O)O", "note": "(mixture of isomers) [Example 115, (3R/S)-3-(3-{[(2R/S)-2-Cyclopentyl-2-{3-fluoro-4-[5-(trifluoromethyl)pyridin-3-yl]phenyl}acetyl]amino}-2-methylphenyl)butanoic acid]", "values": [{"measurement": "IC50", "value": 0.0185, "unit": "µM"}]}
{"compound": "Cc1ncc(-c2ccc(C(C(=O)Nc3cccc(C(C)CC(=O)O)c3C)C3CCCC3)cc2F)cc1Cl", "note": "(mixture of isomers) [Example 120, (3R/S)-3-[3-({(2R/S)-2-[4-(5-Chloro-6-methylpyridin-3-yl)-3-fluorophenyl]-2-cyclopentylacetyl}amino)-2-methylphenyl]butanoic acid]", "values": [{"measurement": "IC50", "value": 0.0159, "unit": "µM"}]}
{"compound": "Cc1c(NC(=O)C(c2ccc(-c3cncc(Cl)c3)c(F)c2)C2CCCC2)cccc1C(C)CC(=O)O", "note": "(mixture of isomers) [Example 125, (3R/S)-3-[3-({(2R/S)-2-[4-(5-Chloropyridin-3-yl)-3-fluorophenyl]-2-cyclopentylacetyl}amino)-2-methylphenyl]butanoic acid]", "values": [{"measurement": "IC50", "value": 0.0229, "unit": "µM"}]}
{"compound": "Cc1c(NC(=O)C(c2ccc(-c3cncc(Cl)c3)cc2)C2CCC2)cccc1C(C)CC(=O)O", "note": "(mixture of isomers) [Example 135, (3R/S)-3-[3-({(2R/S)-2-[4-(5-Chloropyridin-3-yl)phenyl]-2-cyclobutylacetyl}amino)-2-methylphenyl]butanoic acid]", "values": [{"measurement": "IC50", "value": 0.0862, "unit": "µM"}]}
{"compound": "Cc1c(NC(=O)C(c2ccc(-c3cncc(C(F)(F)F)c3)c(F)c2)C2CCC2)cccc1C(C)CC(=O)O", "note": "(mixture of isomers) [Example 145, (3R/S)-3-(3-{[(2R/S)-2-Cyclobutyl-2-{3-fluoro-4-[5-(trifluoromethyl)pyridin-3-yl]phenyl}acetyl]amino}-2-methylphenyl)butanoic acid]", "values": [{"measurement": "IC50", "value": 0.0504, "unit": "µM"}]}
